From patent publication US6544768B1, “Mammalian soluble adenylyl cyclase” (Cornell Research Foundation, Inc., priority 1999, dated 2003)
Like-named read-outs stand apart in the source and are kept apart here. Blank lines part the entries; values can stand above or below the molecule they belong to.

Legend:
[1] = target: T1, truncated form of sAC (Rattus norvegicus, UniProt Q9Z286); experiment: P site ligand test on truncated sAC; assay type: biochemical
T1 construct: sACt, amino acids 1-469
T1 sequence (Q9Z286 1-469): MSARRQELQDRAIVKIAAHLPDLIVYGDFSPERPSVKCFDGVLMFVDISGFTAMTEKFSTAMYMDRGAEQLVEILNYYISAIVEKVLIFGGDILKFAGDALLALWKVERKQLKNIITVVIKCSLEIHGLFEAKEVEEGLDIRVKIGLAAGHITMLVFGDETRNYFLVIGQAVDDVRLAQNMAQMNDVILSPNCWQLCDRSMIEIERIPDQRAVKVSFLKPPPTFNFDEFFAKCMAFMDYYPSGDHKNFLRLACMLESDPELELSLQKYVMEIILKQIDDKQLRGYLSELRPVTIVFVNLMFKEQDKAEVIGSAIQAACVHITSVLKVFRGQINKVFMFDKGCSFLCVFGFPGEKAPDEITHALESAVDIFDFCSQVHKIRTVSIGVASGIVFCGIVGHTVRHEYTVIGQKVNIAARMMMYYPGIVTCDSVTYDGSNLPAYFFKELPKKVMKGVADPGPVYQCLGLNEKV
Description: (3) P site ligands and inhibitors of other ATP-utilizing enzymes.

[2] = system: sAC; experiment: Soluble adenylyl cyclase activity in cytosolic extracts from rat testis; details: read-out: Km for ATP; in the presence of MnCl2
[3] = system: tmACs; details: read-out: Km of tmACs for substrate ATP; cited from earlier work
[4] = system: sAC; details: read-out: Km of sAC for substrate ATP; cited from earlier work
[5] = target: T2, full-length and truncated forms of sAC (Rattus norvegicus, UniProt Q9Z286); experiment: Adenylyl cyclase assay in whole-cell sonicates from sAC-transfected HEK293 cells; assay type: biochemical; details: both full-length and truncated forms
T2 construct: we heterologously expressed the full-length cDNA in HEK293 cells; expressed in transfected cells; host or cells: HEK293, transient, pBK-CMV
Description: Heterologous Expression. To confirm that the gene we isolated encoded an adenylyl cyclase, we heterologously expressed the full-length cDNA in HEK293 cells. The full-length and truncated sAC cDNAs were expressed from the library vector (pBK-CMV) under the control of the cytomegalovirus promoter after deletion of the intervening bacterial promoter sequences (as an NheI-SpeI fragment). The truncated sAC cDNA (sACt) represented a library clone that was missing an exon. The resultant protein shifted the reading frame after valine 469 (FIG. 1; underline), introducing two incorrect amino acids (serine and cysteine) followed by a stop codon. Expression constructs were transiently introduced into HEK293 by lipofectamine—mediated transfection (Life Technologies, Grand Island, N.Y.). One or two days after transfection, cells were harvested, resuspended in lysis buffer (50 mM Tris-HCl, pH 7.5/1 mM EDTA/1 mM DTT/0.1 mg/ml Leupeptin/1 mM phenylmethylsulfonyl fluoride) and disrupted by microtip probe sonication on ice. Whole-cell sonicates were ultramicrocentrifuged at >100,000×g for 10 minutes. Supernatants were cleared by a second centrifugation to yield ‘cytosolic’ extracts. Pellets were resuspended in lysis buffer by passage through a 27.5-gauge needle to generate ‘particulate fraction. […]

[6] = target: T3, Purified recombinant sACt protein (Rattus norvegicus, UniProt Q9Z286); experiment: In vitro adenylyl cyclase assay with purified recombinant sACt; assay type: biochemical; details: for % Basal (adenylyl cyclase activity relative to activity in the absence of any salts): salts at 50 mM
T3 construct: sACt, amino acids 1-469, plus a C-terminal Hexahistidine tag; Hexahistidine (C); made in house; host or cells: insect HiFive cells (baculovirus, Bac-to-Bac)
T3 sequence (Q9Z286 1-469): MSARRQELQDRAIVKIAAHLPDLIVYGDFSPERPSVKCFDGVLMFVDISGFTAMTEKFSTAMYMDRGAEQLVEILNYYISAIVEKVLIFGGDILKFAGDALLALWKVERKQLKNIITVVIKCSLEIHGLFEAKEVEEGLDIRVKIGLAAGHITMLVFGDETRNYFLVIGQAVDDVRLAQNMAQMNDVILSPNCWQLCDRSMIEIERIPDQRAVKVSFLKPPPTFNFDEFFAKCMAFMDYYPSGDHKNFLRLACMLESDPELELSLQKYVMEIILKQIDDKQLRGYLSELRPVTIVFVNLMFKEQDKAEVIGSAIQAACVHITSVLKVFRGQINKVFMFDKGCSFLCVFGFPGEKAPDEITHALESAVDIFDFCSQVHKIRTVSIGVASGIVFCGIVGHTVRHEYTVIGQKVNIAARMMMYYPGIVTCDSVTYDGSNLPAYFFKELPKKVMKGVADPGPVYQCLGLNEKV
Procedure: (§1) The cell lines were starved for bicarbonate (grown in HEPES-bufferred, NaHCO3-free D-MEM under ambient CO2) for 24 hours. Cellular cAMP accumulation and in vitro adenylyl cyclase activity in the presence of [a^32P] ATP and MnCl2 or MgCl2 were assayed. In vitro adenylyl cyclase assays were performed at pH 7.5 in Tris-buffered solutions.
Kinetic parameters were determined using KinetAsyst II (IntelliKinetics).

[7] = system: soluble adenylyl cyclase; details: cited from earlier work
[8] = system: sAC; experiment: Adenylyl cyclase activity in anti-sAC immunoprecipitates from rat testis cytosol; assay type: biochemical; details: 40 mM NaHCO3 or 100 μM Forskolin
Procedure: Rat testis were tested for sAC activity by immunoassay. Immunoprecipitates from rat testis cytosol were tested using either pre-immune serum or α-sAC antisera. […]. […]. Data in FIG. 4b are presented as pmol of cAMP formed over 20 minutes, and values represent averages of duplicate determinations with standard deviations indicated.

[9] = target: T4, Spirulina platensis CyaC (Limnospira platensis, UniProt O32393); details: 0-60 mM NaHCO3, 100 μM ATP, 5 mM MnCl2
[10] = system: HEK293/V cells, which express endogenous tmACs; details: for Cellular cAMP accumulation in HEK293/V: vector transfected cells
Procedure: as §1
Among mammalian adenylyl cyclases, sAC appears to be the only form regulated by bicarbonate ions.

[11] = target: T4, Spirulina platensis CyaC; experiment: biochemical
[12] = target: sACfl (Rattus norvegicus, UniProt Q9Z286)
Procedure: as §1

[13] = system: sAC; experiment: Ecdysone inducible sAC expression in transiently transfected NIH3T3 cells; assay type: cell-based; details: transient transfection
Description: The commercially available (Invitrogen) ecdysone inducible system (No, D. et al., PNAS, 1996, 93:3346-3351) is based on an insect hormone regulated transcriptional activator, the ecdysone receptor (EcR). This system takes advantage of the specificity of EcR for its own response element, and the lack of any cross-reactivity by any mammalian transcription factor. We stably introduced both the EcR and its requisite partner, Retinoid X Receptor (RXR) into NIH3T3 cells. Additionally, to confirm the efficacy of this expression system, we performed pilot experiments with 3T3 cells transiently transfected with both plasmids. […] This induction was overcome by co-expression of sAC antisense (αsAA). The sequence was the entire sAC truncated (sAC trunc) sequence cloned in reverse orientation with respect to the promoter. The coding sequence for sAC trunc was approximately 1 through 1710 and the antisense was nucleotides 1710 through 1. For the antisense experiment, we transiently transfected three plasmids into NIH3T3 cells: 1) Ecdysone receptor/RXR expression plasmid; 2) sAC trunc expression plasmid (driven by ecdysone promoter) and 3) antisense expression plasmid (driven by ecdysone promoter).

[14] = target: sAC as co-expressed with mammalian CAP; experiment: cell-based or functional assay
[15] = target: T5, sAC (Rattus norvegicus, UniProt Q9Z286); experiment: Co-expression of mammalian CAP with sAC
T5 construct: expressed in transfected cells
T5 sequence (Q9Z286 whole entry): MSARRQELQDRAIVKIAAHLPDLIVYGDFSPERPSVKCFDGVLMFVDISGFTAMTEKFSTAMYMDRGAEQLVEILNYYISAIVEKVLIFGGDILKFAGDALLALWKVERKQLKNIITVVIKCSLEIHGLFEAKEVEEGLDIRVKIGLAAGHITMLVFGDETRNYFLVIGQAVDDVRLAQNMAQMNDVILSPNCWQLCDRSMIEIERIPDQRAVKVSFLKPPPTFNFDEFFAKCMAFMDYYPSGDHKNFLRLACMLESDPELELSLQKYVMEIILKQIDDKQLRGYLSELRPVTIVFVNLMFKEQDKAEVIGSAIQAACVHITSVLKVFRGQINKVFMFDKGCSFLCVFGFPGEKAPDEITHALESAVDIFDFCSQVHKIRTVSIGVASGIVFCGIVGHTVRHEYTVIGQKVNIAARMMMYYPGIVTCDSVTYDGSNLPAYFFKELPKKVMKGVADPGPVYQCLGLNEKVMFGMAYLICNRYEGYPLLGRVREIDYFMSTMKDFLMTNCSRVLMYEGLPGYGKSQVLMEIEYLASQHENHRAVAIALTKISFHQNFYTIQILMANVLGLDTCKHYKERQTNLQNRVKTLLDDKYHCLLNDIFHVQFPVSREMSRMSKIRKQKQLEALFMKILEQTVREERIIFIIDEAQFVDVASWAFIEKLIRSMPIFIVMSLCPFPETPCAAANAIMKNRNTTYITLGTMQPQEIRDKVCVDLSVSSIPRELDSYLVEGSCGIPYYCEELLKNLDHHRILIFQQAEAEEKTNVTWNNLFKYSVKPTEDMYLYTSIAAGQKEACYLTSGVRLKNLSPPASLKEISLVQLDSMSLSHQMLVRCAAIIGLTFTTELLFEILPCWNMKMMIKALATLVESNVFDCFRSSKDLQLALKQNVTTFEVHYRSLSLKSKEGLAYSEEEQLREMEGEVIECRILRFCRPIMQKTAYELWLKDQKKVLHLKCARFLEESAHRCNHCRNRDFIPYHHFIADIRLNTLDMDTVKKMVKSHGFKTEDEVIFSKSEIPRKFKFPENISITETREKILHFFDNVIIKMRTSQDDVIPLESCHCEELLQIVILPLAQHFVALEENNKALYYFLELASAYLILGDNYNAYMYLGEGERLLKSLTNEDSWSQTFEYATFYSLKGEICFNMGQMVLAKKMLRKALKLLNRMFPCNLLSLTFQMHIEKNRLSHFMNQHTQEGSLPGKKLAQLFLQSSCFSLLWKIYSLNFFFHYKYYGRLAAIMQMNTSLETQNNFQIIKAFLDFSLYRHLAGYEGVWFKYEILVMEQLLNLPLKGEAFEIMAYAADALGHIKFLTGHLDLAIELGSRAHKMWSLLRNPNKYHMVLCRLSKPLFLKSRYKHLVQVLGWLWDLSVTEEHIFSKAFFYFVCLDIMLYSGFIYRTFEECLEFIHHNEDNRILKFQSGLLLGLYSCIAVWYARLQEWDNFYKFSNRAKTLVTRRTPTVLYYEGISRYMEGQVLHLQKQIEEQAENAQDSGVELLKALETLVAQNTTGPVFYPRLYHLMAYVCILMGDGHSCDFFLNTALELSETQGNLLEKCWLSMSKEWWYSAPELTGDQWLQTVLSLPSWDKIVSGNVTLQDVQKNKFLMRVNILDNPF

sACfl, sequence (Q9Z286 whole entry): as above
T4 sequence (O32393 1-1202): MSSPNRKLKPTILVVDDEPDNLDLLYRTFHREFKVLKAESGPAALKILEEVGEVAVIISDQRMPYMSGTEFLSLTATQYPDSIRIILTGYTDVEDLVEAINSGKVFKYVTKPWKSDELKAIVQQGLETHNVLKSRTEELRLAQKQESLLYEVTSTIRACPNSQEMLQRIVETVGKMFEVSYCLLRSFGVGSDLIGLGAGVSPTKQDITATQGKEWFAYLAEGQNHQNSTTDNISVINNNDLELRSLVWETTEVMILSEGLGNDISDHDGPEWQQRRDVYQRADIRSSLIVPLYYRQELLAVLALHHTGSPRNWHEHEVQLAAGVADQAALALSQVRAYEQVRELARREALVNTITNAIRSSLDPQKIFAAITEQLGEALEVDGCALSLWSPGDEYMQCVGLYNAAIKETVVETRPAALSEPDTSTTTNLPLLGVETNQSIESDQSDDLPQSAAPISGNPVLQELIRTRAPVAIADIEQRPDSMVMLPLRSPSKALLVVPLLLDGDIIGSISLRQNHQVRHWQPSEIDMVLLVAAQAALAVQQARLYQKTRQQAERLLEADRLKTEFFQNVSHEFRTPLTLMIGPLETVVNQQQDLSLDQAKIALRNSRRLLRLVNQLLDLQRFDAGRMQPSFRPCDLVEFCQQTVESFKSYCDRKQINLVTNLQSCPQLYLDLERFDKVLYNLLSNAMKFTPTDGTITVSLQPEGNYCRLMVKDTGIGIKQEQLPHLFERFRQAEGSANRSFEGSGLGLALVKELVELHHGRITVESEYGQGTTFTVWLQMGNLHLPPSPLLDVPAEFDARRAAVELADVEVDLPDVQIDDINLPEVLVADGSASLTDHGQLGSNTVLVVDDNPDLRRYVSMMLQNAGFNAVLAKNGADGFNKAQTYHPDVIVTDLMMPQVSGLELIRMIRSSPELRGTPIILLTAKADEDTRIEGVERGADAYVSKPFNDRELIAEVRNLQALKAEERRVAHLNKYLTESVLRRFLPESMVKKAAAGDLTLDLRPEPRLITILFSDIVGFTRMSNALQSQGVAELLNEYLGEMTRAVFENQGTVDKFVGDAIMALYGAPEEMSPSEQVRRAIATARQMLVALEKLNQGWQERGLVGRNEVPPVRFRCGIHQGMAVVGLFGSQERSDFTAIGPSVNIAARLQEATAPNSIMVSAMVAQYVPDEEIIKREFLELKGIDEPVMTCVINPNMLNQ
T2 sequence (Q9Z286 whole entry, the tested form may be a part): as the sequence (Q9Z286 whole entry) above

Sensitivity of sAC to P site ligand [1]: insensitivity
Molecule: Nc1ncnc2c1ncn2[C@H]1CC[C@@H](CO)O1 [2′,3′-dideoxyadenosine]

Molecule: Nc1ncnc2c1ncn2[C@@H]1O[C@H](COP(=O)(O)OP(=O)(O)OP(=O)(O)O)[C@@H](O)[C@H]1O [ATP]
Km [2]: 1200 µM | Km [3]: ~100 µM | Km [4]: ~1000 µM

Response of heterologously expressed sAC to stimulators of tmAC activity [5]: completely insensitive
Molecule: Nc1nc2c(ncn2[C@@H]2O[C@H](COP(=O)(O)OP(=O)(O)OP(O)(O)=S)[C@@H](O)[C@H]2O)c(=O)[nH]1 [GTPγS]

Molecule: O=C([O-])O.[K+] [KHCO3]
% Basal (adenylyl cyclase activity relative to activity in the absence of any salts) [6]: 412 ± 6.1%

Molecule: N[C@@H](Cc1ccc(O)c(O)c1)C(=O)O [L-dopa]
Potency of sAC inhibition relative to catechol estrogens (fold less potent) [7]: 1,000 fold

% Basal (adenylyl cyclase activity relative to activity in the absence of any salts) [6]: 75 ± 2.6%
Molecule: O=P([O-])([O-])O.[Na+].[Na+] [Na2HPO4]

Molecule: O=S([O-])[O-].[Na+].[Na+] [Na2SO3]
% Basal (adenylyl cyclase activity relative to activity in the absence of any salts) [6]: 164 ± 2.9%

% Basal (adenylyl cyclase activity relative to activity in the absence of any salts) [6]: 66 ± 4.6%
Molecule: O=S(=O)([O-])[O-].[Na+].[Na+] [Na2SO4]

Molecule: [Cl-].[Na+] [NaCl]
% Basal (adenylyl cyclase activity relative to activity in the absence of any salts) [6]: 93 ± 11.8%

Molecule: O=C(O)O [NaHCO3]
EC50 [6]: 25.4 ± 7.6 mM | Fold stimulation of purified enzyme ([6]; 0-80 mM NaHCO3, 10 mM ATP, 40 mM MgCl2): greater than seven-fold | % Basal (adenylyl cyclase activity relative to activity in the absence of any salts) [6]: 411 ± 5.3% | Effect on immunoprecipitated AC activity [8]: stimulated | Fold stimulation of CyaC AC activity [9]: 2.5 fold | Cellular cAMP accumulation in HEK293/V [10]: not in vector transfected HEK293 cells | Cellular cAMP accumulation in HEK293/V ([10]; listed as bicarbonate): unaffected | tmAC activity submaximally stimulated by forskolin ([10]; with forskolin): insensitive | EC50 [11]: 18.8 ± 1.6 mM | Adenylyl cyclase activity in cellular lysates from HEK293/sACfl ([12]; 50 mM NaHCO3): stimulated | Cellular cAMP accumulation in HEK293/sACfl ([12]; after 24 hours bicarbonate starvation): stimulated cAMP accumulation

Molecule: O=S([O-])O.[Na+] [NaHSO3]
% Basal (adenylyl cyclase activity relative to activity in the absence of any salts) [6]: 138 ± 4.6%

Molecule: NCCc1ccc(O)c(O)c1 [dopamine]
Potency of sAC inhibition relative to catechol estrogens (fold less potent) [7]: 1,000 fold

Molecule: NC[C@H](O)c1ccc(O)c(O)c1 [norepinephrine]
Potency of sAC inhibition relative to catechol estrogens (fold less potent) [7]: 1,000 fold

Molecule: CC(C)CC[C@@H](O)[C@](C)(O)[C@H]1CC[C@@]2(O)C3=CC(=O)[C@@H]4C[C@@H](O)[C@@H](O)C[C@]4(C)[C@H]3CC[C@]12C [ponasterone A]
sAC activity in cells with ecdysone inducible sAC expression [13]: dependent increase in sAC activity

sAC activity on co-expression [14]: 4 fold
Molecule: mammalian ortholog of yeast CAP (Cyclase Associated Protein)

Increase of sAC activity on co-expression [15]: approximately four-fold
B1: mammalian CAP: mammalian ortholog of yeast Cyclase Associated Protein, co-expressed with sAC (protein, UniProt Q01518 2-475, looked up)
Adenylyl cyclase-associated …: ADMQNLVERLERAVGRLEAVSHTSDMHRGYADSPSKAGAAPYVQAFDSLLAGPVAEYLKISKEIGGDVQKHAEMVHTGLKLERALLVTASQCQQPAENKLSDLLAPISEQIKEVITFREKNRGSKLFNHLSAVSESIQALGWVAMAPKPGPYVKEMNDAAMFYTNRVLKEYKDVDKKHVDWVKAYLSIWTELQAYIKEFHTTGLAWSKTGPVAKELSGLPSGPSAGSCPPPPPPCPPPPPVSTISCSYESASRSSLFAQINQGESITHALKHVSDDMKTHKNPALKAQSGPVRSGPKPFSAPKPQTSPSPKRATKKEPAVLELEGKKWRVENQENVSNLVIEDTELKQVAYIYKCVNTTLQIKGKINSITVDNCKKLGLVFDDVVGIVEIINSKDVKVQVMGKVPTISINKTDGCHAYLSKNSLDCEIVSAKSSEMNVLIPTEGGDFNEFPVPEQFKTLWNGQKLVTTVTEIAG
